Measurements as given in US20240207224A1, “MACROCYCLIC CHALCONE-AMIDE DERIVED ANTIVIRAL AGENTS” (priority 2022, published 2024).
Like-named read-outs stand apart in the source and are kept apart here.

Experiments:
[1] = molecular target: SARS-CoV-2 Papain-like (PLpro) protease (Severe acute respiratory syndrome coronavirus 2, UniProt P0DTD1); experiment: biochemical
SARS-CoV-2 replicon = experiment: microbe, parasite or virus in culture; type: cell-based
SARS-CoV-2 USA-WA1/2020 = experiment: SARS-CoV-2 Cellular Assay (Vero 76); type: cell-based; conditions: Severe acute respiratory syndrome coronavirus 2, Vero 76, 144 h, read-out: SARS-COV-2 BSL3 EC50
Protocol: SARS-CoV-2 Cellular Assay (Vero 76): Test compounds are serially diluted using eight half-log dilutions in test medium (MEM supplemented with 2% FBS and 50 µg/mL gentamicin). Each dilution is added to 5 wells of a 96-well plate with 80-100% confluent Vero 76 cells. Three wells of each dilution are infected with virus (SARS-CoV-2 USA-WA1/2020), and two wells remain uninfected as toxicity controls. Six wells are infected and untreated as virus controls, and six wells are uninfected and untreated as cell controls. Viruses are prepared to achieve the lowest possible multiplicity of infection (MOI˜0.002) that would yield >80% cytopathic effect (CPE) at 6 days. Plates are incubated at 37±2° C., 5% CO2. For neutral red assay, on day 6 post-infection, once untreated virus control wells reach maximum CPE, plates are stained with neutral red dye for approximately 2 hours (±15 minutes). Supernatant dye is removed, and wells are rinsed with PBS, and the incorporated dye is extracted in 50:50 Sorensen citrate buffer/ethanol for >30 minutes and the optical density is read on a spectrophotometer at 540 nm. Optical densities are converted to percent of cell controls and normalized to the virus control, then the concentration of test compound required to inhibit CPE by 50% (EC50) is calculated by regression analysis. The concentration of compound that would cause 50% cell death in the absence of virus was similarly calculated (CC50). EC50 ranges are reported as follows: A<1 µM; B 1-10 µM; C 10-50 µM; D>50 µM.

[2] = ubiquitin-fluorophore substrate (Ub-R110), 30 min preincubation at RT, run in duplicate, read-out: PLpro IC50
[3] = Severe acute respiratory syndrome coronavirus 2, Huh-7, 20 h; read-out: SARS-COV-2 replicon EC50
[4] = Severe acute respiratory syndrome coronavirus 2, Huh-7, 20 h, read-out: SARS-COV-2 replicon EC50

| SMILES | IC50 [1, 2] [nM] | further results |
| --- | --- | --- |
| Cc1ccc2cc1C(=O)N[C@H](C)c1cc(cc3ccccc13)CCCCNC2 [Example 4] | 1000 to 10000 |  |
| COC(=O)/C=C/C(=O)NNC(=O)CCc1ccc2cc1C(=O)N[C@H](C)c1cccc(c1)C=CCCCCC2 [Example 22] | 1000 to 10000 |  |
| COC(=O)/C=C/C(=O)NNC(=O)CCc1ccc2cc1C(=O)N[C@H](C)c1cc(cc3ccccc13)CCCCCCN(C)C2=O [Example 30] | < 100 | EC50 (SARS-CoV-2 replicon; [3]): 1000 to 10000 nM; EC50 (SARS-CoV-2 USA-WA1/2020): < 1000 nM |
| Cc1ccc2cc1C(=O)N[C@H](C)c1cc(cc3ccccc13)C=CCCCCC2 [Example 6] | > 10000 |  |
| COC(=O)/C=C/C(=O)NNC(=O)CCc1ccc2cc1C(=O)N[C@H](C)c1cc(cc3c1CCCC3)CCCCCNS2(=O)=O [Example 36] | 100 to 1000 |  |
| COC(=O)/C=C/C(=O)NNC(=O)CCc1ccc2cc1C(=O)N[C@H](C)c1cc(cc3ccccc13)CCCCCS(=O)(=O)C2 [Example 24] | < 100 | EC50 (SARS-CoV-2 replicon; [3]): 10000 to 50000 nM |
| COC(=O)/C=C/C(=O)NNC(=O)CCc1ccc2cc1C(=O)N[C@H](C)c1cc(cc3ccccc13)CCCCCNC2=O [Example 25] |  | EC50 (SARS-CoV-2 replicon; [4]): < 1000 nM; EC50 (SARS-CoV-2 USA-WA1/2020): < 1000 nM |
| COC(=O)/C=C/C(=O)NNC(=O)CCc1ccc2cc1C(=O)N[C@H](C)c1cc(cc3ccccc13)C=CCCCNC2=O [Example 28] | < 100 |  |
| COC(=O)/C=C/C(=O)N(NC(=O)CCc1ccc2cc1C(=O)N[C@H](C)c1cc(cc3ccccc13)CCCCOCCNC2=O)C(=O)/C=C/C(=O)OC [Example 38] | < 100 |  |
| Cc1ccc2cc1C(=O)N[C@H](C)c1cc(cc3ccccc13)-c1cn(nn1)CCCCNC2 [Example 17] |  | EC50 (SARS-CoV-2 replicon; [4]): 10000 to 50000 nM; IC50 [1]: 100 to 1000 nM |
| COC(=O)/C=C/C(=O)NNC(=O)CCc1ccc2cc1C(=O)N[C@H](C)c1cc(cc3ccccc13)CCCCCC(=O)N2 [Example 39] | < 100 | EC50 (SARS-CoV-2 replicon; [3]): 1000 to 10000 nM; EC50 (SARS-CoV-2 USA-WA1/2020): < 1000 nM |
| COC(=O)/C=C/C(=O)NNC(=O)CCc1ccc2cc1C(=O)N[C@H](C)c1cc(cc3ccccc13)CCCCOCCNC2=O [Example 37] | < 100 | EC50 (SARS-CoV-2 replicon; [3]): < 1000 nM; EC50 (SARS-CoV-2 USA-WA1/2020): < 1000 nM |
| Cc1ccc2cc1C(=O)N[C@H](C)c1cc(cc3ccccc13)C(=O)N1CCN(CC1)C(=O)CC2 [Example 9] | > 10000 |  |
| COC(=O)/C=C/C(=O)NNC(=O)CCc1ccc2cc1C(=O)N[C@H](C)c1cc(cc3ccccc13)C=CCCCCN(C)C2=O [Example 29] | < 100 |  |
| COC(=O)/C=C/CNC(=O)C(=O)NCc1ccc2cc1C(=O)N[C@H](C)c1cc(cc3ccccc13)CCCCCNC2=O [Example 42, methyl (R,E)-4-(2-(((2-methyl-4,6-dioxo-3,7-diaza-1(1,3)-naphthalena-5(1,3)-benzenacyclododecaphane-5^6-yl)methyl)amino)-2-oxoacetamido)but-2-enoate] | > 10000 |  |
| COC(=O)/C=C/C(=O)NNC(=O)CCc1ccc2cc1C(=O)N[C@H](C)c1cccc3ccc(cc13)CCCCNC2=O [Example 34] | 100 to 1000 |  |
| COC(=O)/C=C/C(=O)NNC(=O)CCc1ccc2cc1C(=O)N[C@H](C)c1cc(cc3ccccc13)C=CCCCCNC2=O [Example 27] | < 100 |  |
| COC(=O)/C=C/C(=O)NNC(=O)CCc1ccc2cc1C(=O)N[C@H](C)c1cc(cc3ccccc13)C=CCCCCC2 [Example 19] | < 100 | EC50 (SARS-CoV-2 replicon; [3]): 1000 to 10000 nM |
| COC(=O)/C=C/C(=O)NNC(=O)CCc1ccc2cc1C(=O)N[C@H](C)c1cc(cc3ccccc13)CCCCOC(=O)N2 [Example 40] | < 100 | EC50 (SARS-CoV-2 replicon; [3]): 1000 to 10000 nM; EC50 (SARS-CoV-2 USA-WA1/2020): < 1000 nM |
| Cc1ccc2cc1C(=O)N[C@H](C)c1c(ccc3ccccc13)CCCCNC2 [Example 7] | 1000 to 10000 |  |

| SMILES | IC50 [1, 2] [nM] | further results |
| --- | --- | --- |
| Cc1ccc2cc1C(=O)N[C@H](C)c1cc(cc3ccccc13)C=CCCCN(C(=O)OCc1ccccc1)C2 [Example 1] |  | IC50 [1]: > 10000 nM |
| COC(=O)/C=C/C(=O)NNC(=O)CCc1ccc2cc1C(=O)N[C@H](C)c1cc(cc3ccccc13)C=CCCCN(C)C2=O [Example 32] | < 100 |  |
| COC(=O)/C=C/C(=O)NNC(=O)CCc1ccc2cc1C(=O)N[C@H](C)c1cc(cc3ccccc13)CCCCCCC2 [Example 18] | 100 to 1000 | EC50 (SARS-CoV-2 replicon; [3]): 10000 to 50000 nM; EC50 (SARS-CoV-2 USA-WA1/2020): 1000 to 10000 nM |
| Cc1ccc2cc1C(=O)N[C@H](C)c1cc(cc3ccccc13)CCCCCCNC2 [Example 5] | 100 to 1000 | EC50 (SARS-CoV-2 replicon; [3]): 1000 to 10000 nM |
| C[C@H]1NC(=O)c2cc(ccc2C#N)C(=O)NCCCCCc2cc1c1ccccc1c2 [Example 41] | 1000 to 10000 |  |
| COC(=O)/C=C/C(=O)NNC(=O)CCc1ccc2cc1C(=O)N[C@H](C)c1cc(cc3ccccc13)CCCCCCS(=O)(=O)C2 [Example 23] | < 100 | EC50 (SARS-CoV-2 replicon; [3]): 10000 to 50000 nM |
| C[C@H]1NC(=O)c2cc(ccc2CCC(=O)NN)CCCCCC=Cc2cc1c1ccccc1c2 [Example 20] | > 10000 |  |
| COC(=O)/C=C/C(=O)NNC(=O)CCc1ccc2cc1C(=O)N[C@H](C)c1cc(cc3ccccc13)CCCCCN(C)C2=O [Example 31] | < 100 |  |
| Cc1ccc2cc1C(=O)N[C@H](C)c1cc(cc3ccccc13)CCCCCNC2 [Example 2] | 100 to 1000 | EC50 (SARS-CoV-2 replicon; [3]): 1000 to 10000 nM; EC50 (SARS-CoV-2 USA-WA1/2020): 1000 to 10000 nM |
| Cc1ccc2cc1C(=O)N[C@H](C)c1cc(cc3ccccc13)N1CCN(CCCC(=O)NC2)CC1 [Example 15] | 1000 to 10000 |  |
| Cc1ccc2cc1C(=O)N[C@H](C)c1c(ccc3ccccc13)CCCCCNC2 [Example 8] | > 10000 |  |
| Cc1ccc2cc1C(=O)N[C@H](C)c1cc(cc3ccccc13)C=CCCN(C(=O)OCc1ccccc1)C2 [Example 3] | > 10000 |  |
| COC(=O)/C=C/C(=O)NNC(=O)CCc1ccc2cc1C(=O)N[C@H](C)c1cc(cc3ccccc13)CCCCCCNC2=O [Example 26] | < 100 |  |
| Cc1ccc2cc1C(=O)N[C@H](C)c1cc(cc3ccccc13)-c1cn(nn1)CCCCC(=O)NC2 [Example 14] | 100 to 1000 | EC50 (SARS-CoV-2 replicon; [3]): > 50000 nM |
| Cc1ccc2cc1C(=O)N[C@H](C)c1cc(cc3ccccc13)N1CCN(CCCCC(=O)NC2)CC1 [Example 16] | > 10000 |  |
| Cc1ccc2cc1C(=O)N[C@H](C)c1cc(cc3ccccc13)C(=O)N(C)CCCN(C)C(=O)CC2 [Example 11] | > 10000 |  |
| C[C@H]1NC(=O)c2cc(ccc2CCC(=O)NNC(=O)OC(C)(C)C)CCCCCC=Cc2cc1c1ccccc1c2 [Example 21] | > 10000 |  |
| Cc1ccc2cc1C(=O)N[C@H](C)c1cc(cc3ccccc13)C(=O)N(C)CCCC(=O)NC2 [Example 12] | > 10000 |  |
| Cc1ccc2cc1C(=O)N[C@H](C)c1cc(cc3ccccc13)-c1cn(nn1)CCCC(=O)NC2 [Example 13] | > 10000 |  |
| COC(=O)/C=C/C(=O)NNC(=O)CCc1ccc2cc1C(=O)N[C@H](C)c1cc(cc3ccccc13)CCCCCNS2(=O)=O [Example 35] | < 100 |  |
